The test has as its target T1, human 11beta-HSD1 (Homo sapiens, UniProt P28845).
T1 construct: made in house; host or cells: HEK293 cells (ATCC CRL-1573), transient transfection with a pcDNA3 construct; microsomal fraction
Description: Microsome assay (cortisone to cortisol conversion, ELISA). To be noted: microsomes from HEK293 cells transiently expressing human 11beta-HSD1; Cortisone 50-200 nM, NADPH 1 mM, 60 min at 37° C.; read-out: h 11-beta-HSD 1 IC50. Format: biochemical. On the procedure: The cDNA encoding the human 11beta-HSD1 protein was cloned into the expression vector pcDNA3 ([…]). This construct (for details see Alex Odermatt et al.; J Biol Chem., 1999, Vol. 274, Issue 40, 28762-28770) was used to transiently express the protein in HEK293 cells (ATCC number: CRL-1573, described in Graham, F. L., Smiley, J., Russell, W. C., Nairn, R.; (1977)) using lipofectamine. 48 h after transfection cells were washed twice with ice-cold PBS (Phosphate buffered Saline). To 1 volume of cell suspension in PBS 2 volumes of ice-cold lysis buffer (50 mM Tris; pH7.5; 1 mM EDTA; 100 mM NaCl) were added. The cells were lysed by Potter-homogenization (20 strokes). The resulting homogenate was sonicated wit a tip sonicator (10% output; 2×30 sec.) and cleared by a low speed centrifugation (10 min×9000 g; 4° C.). The microsomal fraction was collected by a high speed centrifugation (60 min×110'000 g). […]
Microsomes isolated from HEK293 cells transiently expressing human 11beta-HSD1 (for details see above) were incubated in assay buffer (100 mM NaCl; 1 mM EDTA; 1 mM EGTA; 1 mM MgCl; 250 mM Sucrose; 20 mM Tris pH 7.4; Cortisone 50-200 nM and NADPH 1 mM) together with different concentrations of test substances. […] The amount of Cortisol produced in this assay was determined using a commercially available, ELISA-based Cortisol-detection kit (Distributed by Assay Design, Inc.). […]

For orientation: IC50 means the concentration at which inhibition is half-maximal.

T1 sequence (P28845 whole entry): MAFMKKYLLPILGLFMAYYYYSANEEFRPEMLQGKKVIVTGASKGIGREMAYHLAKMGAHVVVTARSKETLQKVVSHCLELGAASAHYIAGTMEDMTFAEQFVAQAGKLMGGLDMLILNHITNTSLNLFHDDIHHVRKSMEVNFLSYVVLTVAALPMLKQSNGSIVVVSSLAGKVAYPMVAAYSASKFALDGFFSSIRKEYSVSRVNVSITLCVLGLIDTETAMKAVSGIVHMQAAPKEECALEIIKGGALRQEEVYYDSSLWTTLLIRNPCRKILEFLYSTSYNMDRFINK

On to `Cn1c(C2CC2)c(C2CC2)c(=O)n1-c1ccccc1` [Example 1, 4,5-Dicyclopropyl-1-methyl-2-phenyl-1,2-dihydro-pyrazol-3-one], for which the IC50 was 0.021 µM.

`Cc1c(C23CC4CC(CC(C4)C2)C3)c(=O)n2n1CCCCC2` [Example 51, 2-adamantan-1-yl-3-methyl-6,7,8,9-tetrahydro-5H-pyrazolo[1,2-a][1,2]diazepin-1-one]: the IC50 turned out to be 0.133 µM.
